Data reported in ChEMBL document CHEMBL5335866, “Structure-Based Optimization of Selective and Brain Penetrant CK1δ Inhibitors for the Treatment of Circadian Disruptions” (ACS Med Chem Lett, 2024).
Activity calls are given as the source filed them. No cut-off for these calls is given here.

Tests used:
[1] = Intrinsic clearance in human liver microsomes at 1 uM preincubated for 5 mins followed by NADPH addition measured for 60 mins by LC-MS/MS analysis; type: ADME, Microsome; conditions: time 65 min, read-out: CLH
[2] = Intrinsic clearance in rat liver microsomes at 1 uM preincubated for 5 mins followed by NADPH addition measured for 60 mins by LC-MS/MS analysis; type: ADME, Microsome; conditions: time 65 min, read-out: CLH
[3] = Apparent permeability across apical to basal side in MDCK cells expressing MDR1 at 5 uM incubated for 60 mins by LC/MS/MS analysis; type: ADME, cell-based, Canis lupus familiaris, MDCK1; conditions: dog
[4] = Clearance in Sprague-Dawley rat at 1 mg/kg, iv measured for 24 hrs by LC-MS/MS analysis; type: ADME, organism-based; conditions: in vivo
[5] = Volume of distribution at steady state in Sprague-Dawley rat at 1 mg/kg, iv measured for 24 hrs by LC-MS/MS analysis; type: ADME, organism-based; conditions: in vivo, read-out: Vdss
[6] = Oral bioavailability in Sprague-Dawley rat at 5 mg/kg measured for 24 hrs by LC-MS/MS analysis; type: ADME, organism-based; conditions: in vivo
[7] = Cmax in Sprague-Dawley rat at 5 mg/kg, po measured for 24 hrs by LC-MS/MS analysis; type: ADME, organism-based; design: dose 5 mg/kg, time 24 hrs, route po; conditions: in vivo
[8] = Half life in Sprague-Dawley rat at 5 mg/kg, po measured for 24 hrs by LC-MS/MS analysis; type: ADME, organism-based; conditions: in vivo
[9] = AUC (infinity) in Sprague-Dawley rat at 5 mg/kg, po measured for 24 hrs by LC-MS/MS analysis; type: ADME, organism-based; design: time 24 hrs, dose 5 mg/kg, route po; conditions: in vivo
[10] = Intrinsic clearance in mouse liver microsomes at 1 uM preincubated for 5 mins followed by NADPH addition measured for 60 mins by LC-MS/MS analysis; type: ADME, Microsome; conditions: time 65 min, read-out: CLH
[11] = Intrinsic clearance in dog liver microsomes at 1 uM preincubated for 5 mins followed by NADPH addition measured for 60 mins by LC-MS/MS analysis; type: ADME, Canis lupus familiaris, Microsome; conditions: time 65 min, read-out: CLH
[12] = Intrinsic clearance in cynomolgus monkey liver microsomes at 1 uM preincubated for 5 mins followed by NADPH addition measured for 60 mins by LC-MS/MS analysis; type: ADME, Macaca fascicularis, Microsome; conditions: time 65 min, read-out: CLH
Cytochrome P450 1A2 = Cytochrome P450 1A2 (Homo sapiens, UniProt P05177); experiment: Inhibition of CYP1A2 in human liver microsomes incubated for 10 mins in presence of NADPH by LC-MS/MS analysis; type: ADME, Microsome
Cytochrome P450 2C8 = Cytochrome P450 2C8 (Homo sapiens, UniProt P10632); experiment: Inhibition of CYP2C8 in human liver microsomes incubated for 10 mins in presence of NADPH by LC-MS/MS analysis; type: ADME, Microsome
Cytochrome P450 2C9 = Cytochrome P450 2C9 (Homo sapiens, UniProt P11712); experiment: Inhibition of CYP2C9 in human liver microsomes incubated for 10 mins in presence of NADPH by LC-MS/MS analysis; type: ADME, Microsome
Cytochrome P450 2C19 = Cytochrome P450 2C19 (Homo sapiens, UniProt P33261); experiment: Inhibition of CYP2C19 in human liver microsomes incubated for 10 mins in presence of NADPH by LC-MS/MS analysis; type: ADME, Microsome
Cytochrome P450 2D6 = Cytochrome P450 2D6 (Homo sapiens, UniProt P10635); experiment: Inhibition of CYP2D6 in human liver microsomes incubated for 10 mins in presence of NADPH by LC-MS/MS analysis; type: ADME, Microsome
Cytochrome P450 3A4 = Cytochrome P450 3A4 (Homo sapiens, UniProt P08684); experiment: Inhibition of CYP3A4 in human liver microsomes using midazolam as substrate incubated for 5 mins in presence of NADPH by LC-MS/MS analysis; type: ADME, Microsome
[13] = biological target: Casein kinase I isoform alpha (Homo sapiens, UniProt P48729); experiment: Inhibition of CK1 alpha (unknown origin)
[14] = biological target: Casein kinase I isoform epsilon (Homo sapiens, UniProt P49674); experiment: Inhibition of CK1 epsilon (unknown origin)
[15] = Unbound Cmax in Sprague-Dawley rat at 5 mg/kg, po measured for 24 hrs by LC-MS/MS analysis; type: ADME, organism-based; conditions: in vivo
[16] = Cmax in brain of C57BL/6 mouse at 30 mg/kg, sc measured after 15 mins by LC/MS-MS analysis; type: ADME, organism-based; design: time 15 min, dose 30 mg/kg, route sc
[17] = Cmax in plasma of C57BL/6 mouse at 30 mg/kg, sc measured after 15 mins by LC/MS-MS analysis; type: ADME, organism-based; design: dose 30 mg/kg, time 15 min, route sc
[18] = Cmax in brain of C57BL/6 mouse at 30 mg/kg, sc measured for 6 hrs by LC/MS-MS analysis; type: ADME, organism-based; design: time 6 hrs, dose 30 mg/kg, route sc
[19] = Cmax in plasma of C57BL/6 mouse at 30 mg/kg, sc measured for 6 hrs by LC/MS-MS analysis; type: ADME, organism-based; design: time 6 hrs, dose 30 mg/kg, route sc
[20] = Unbound drug concentration in brain of C57BL/6 mouse at 30 mg/kg, sc measured for 6 hrs by LC/MS-MS analysis; type: ADME, organism-based; conditions: in vivo
[21] = Unbound drug concentration in plasma of C57BL/6 mouse at 30 mg/kg, sc measured for 6 hrs by LC/MS-MS analysis; type: ADME, organism-based; conditions: in vivo
[22] = Ratio of unbound fraction in brain to plasma of C57BL/6 mouse at 30 mg/kg, sc measured for 6 hrs by LC/MS-MS analysis; type: ADME, organism-based; conditions: read-out: K(p,uu,brain)
Brain = experiment: Ex vivo receptor occupancy at CK1 delta in brain of C57BL/6 mouse at 30 mg/kg, sc measured for 6 hrs by autoradiography relative to control; type: functional
[23] = Effect on circadian rhythms in C57BL/6 mouse assessed as phase delay in time at 30 mg/kg, sc qd for 10 days by wheel running assay; type: functional; conditions: time 10 day
[24] = biological target: TRAF2 and NCK-interacting protein kinase (Homo sapiens, UniProt Q9UKE5); experiment: Inhibition of TNIK (unknown origin)
[25] = Oral bioavailability in C57BL/6 mouse at 5 mg/kg measured for 6 hrs by LC/MS-MS analysis; type: ADME, organism-based; conditions: in vivo
[26] = Cmax in C57BL/6 mouse at 5 mg/kg, po measured for 6 hrs by LC/MS-MS analysis; type: ADME, organism-based; design: dose 5 mg/kg, time 6 hrs, route po; conditions: in vivo
[27] = Oral bioavailability in C57BL/6 mouse at 30 mg/kg measured for 6 hrs by LC/MS-MS analysis; type: ADME, organism-based; conditions: in vivo
[28] = Cmax in plasma of C57BL/6 mouse at 30 mg/kg, sc measured after 30 mins by LC/MS-MS analysis; type: ADME, organism-based; design: time 30 min, dose 30 mg/kg, route sc
[29] = Cmax in brain of C57BL/6 mouse at 30 mg/kg, sc measured after 30 mins by LC/MS-MS analysis; type: ADME, organism-based; design: time 30 min, dose 30 mg/kg, route sc
Mus musculus [30] = experiment: Effect on circadian rhythms in C57BL/6 mouse assessed as phase shift at 30 mg/kg, sc qd measured after 4 to 10 days by wheel running assay; type: functional, organism-based; conditions: time 4-10 day
Mus musculus [31] = experiment: Effect on circadian rhythms in C57BL/6 mouse assessed as phase shift at 10 to 30 mg/kg, sc qd measured after 1 to 10 days by wheel running assay; type: functional, organism-based; conditions: dose 10-30 mg/kg, time 1-10 day, tested as the 2H-labelled form

Sequence of Cytochrome P450 1A2 (P05177 whole entry): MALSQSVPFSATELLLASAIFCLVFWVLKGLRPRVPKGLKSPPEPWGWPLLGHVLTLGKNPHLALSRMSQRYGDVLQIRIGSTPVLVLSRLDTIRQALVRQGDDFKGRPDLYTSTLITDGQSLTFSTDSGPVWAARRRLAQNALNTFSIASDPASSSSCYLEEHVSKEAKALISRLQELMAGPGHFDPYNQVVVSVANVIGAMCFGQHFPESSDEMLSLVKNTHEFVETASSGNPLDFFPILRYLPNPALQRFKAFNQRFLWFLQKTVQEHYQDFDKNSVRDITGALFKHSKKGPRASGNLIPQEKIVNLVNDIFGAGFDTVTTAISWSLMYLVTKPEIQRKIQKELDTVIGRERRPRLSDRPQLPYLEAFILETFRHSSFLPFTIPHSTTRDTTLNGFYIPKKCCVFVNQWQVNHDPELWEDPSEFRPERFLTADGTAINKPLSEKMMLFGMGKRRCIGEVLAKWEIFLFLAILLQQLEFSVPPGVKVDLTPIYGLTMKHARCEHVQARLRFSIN
Sequence of Cytochrome P450 2D6 (P10635 whole entry): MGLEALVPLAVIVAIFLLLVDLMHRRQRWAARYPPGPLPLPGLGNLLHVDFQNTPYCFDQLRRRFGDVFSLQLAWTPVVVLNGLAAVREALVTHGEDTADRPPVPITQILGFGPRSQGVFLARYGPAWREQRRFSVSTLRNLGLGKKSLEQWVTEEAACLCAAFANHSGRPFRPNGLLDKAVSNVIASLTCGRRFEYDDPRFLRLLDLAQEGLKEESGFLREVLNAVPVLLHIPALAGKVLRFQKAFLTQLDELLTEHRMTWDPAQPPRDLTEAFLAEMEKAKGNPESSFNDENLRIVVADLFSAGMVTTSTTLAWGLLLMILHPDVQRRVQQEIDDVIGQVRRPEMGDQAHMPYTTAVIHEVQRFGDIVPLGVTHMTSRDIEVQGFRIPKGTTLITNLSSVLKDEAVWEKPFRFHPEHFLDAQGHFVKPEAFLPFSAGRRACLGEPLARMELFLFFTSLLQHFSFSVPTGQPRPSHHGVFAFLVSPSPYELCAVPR
Sequence of Casein kinase I isoform alpha (P48729 whole entry, canonical isoform): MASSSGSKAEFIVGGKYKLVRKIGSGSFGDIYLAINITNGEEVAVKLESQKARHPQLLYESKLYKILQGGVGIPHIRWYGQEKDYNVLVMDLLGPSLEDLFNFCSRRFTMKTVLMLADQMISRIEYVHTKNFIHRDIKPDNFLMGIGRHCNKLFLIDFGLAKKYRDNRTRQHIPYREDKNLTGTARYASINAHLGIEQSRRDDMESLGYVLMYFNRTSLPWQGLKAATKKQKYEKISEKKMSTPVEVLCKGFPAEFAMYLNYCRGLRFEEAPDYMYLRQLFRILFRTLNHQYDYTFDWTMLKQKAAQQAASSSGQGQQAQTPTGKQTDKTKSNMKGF
Sequence of Cytochrome P450 2C19 (P33261 whole entry): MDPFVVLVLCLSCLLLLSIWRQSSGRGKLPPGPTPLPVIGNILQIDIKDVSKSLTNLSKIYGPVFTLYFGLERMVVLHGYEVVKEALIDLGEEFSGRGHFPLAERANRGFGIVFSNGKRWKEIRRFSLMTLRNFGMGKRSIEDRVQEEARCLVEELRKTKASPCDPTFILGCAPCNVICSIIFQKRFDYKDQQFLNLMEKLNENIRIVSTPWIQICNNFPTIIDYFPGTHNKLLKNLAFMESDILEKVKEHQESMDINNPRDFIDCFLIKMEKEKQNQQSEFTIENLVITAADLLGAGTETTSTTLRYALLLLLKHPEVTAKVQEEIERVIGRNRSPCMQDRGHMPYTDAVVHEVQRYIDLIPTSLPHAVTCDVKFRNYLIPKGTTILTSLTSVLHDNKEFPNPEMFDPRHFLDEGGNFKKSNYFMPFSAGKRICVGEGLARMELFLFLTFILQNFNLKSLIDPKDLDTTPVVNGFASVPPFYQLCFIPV
Sequence of Cytochrome P450 3A4 (P08684 whole entry, canonical isoform): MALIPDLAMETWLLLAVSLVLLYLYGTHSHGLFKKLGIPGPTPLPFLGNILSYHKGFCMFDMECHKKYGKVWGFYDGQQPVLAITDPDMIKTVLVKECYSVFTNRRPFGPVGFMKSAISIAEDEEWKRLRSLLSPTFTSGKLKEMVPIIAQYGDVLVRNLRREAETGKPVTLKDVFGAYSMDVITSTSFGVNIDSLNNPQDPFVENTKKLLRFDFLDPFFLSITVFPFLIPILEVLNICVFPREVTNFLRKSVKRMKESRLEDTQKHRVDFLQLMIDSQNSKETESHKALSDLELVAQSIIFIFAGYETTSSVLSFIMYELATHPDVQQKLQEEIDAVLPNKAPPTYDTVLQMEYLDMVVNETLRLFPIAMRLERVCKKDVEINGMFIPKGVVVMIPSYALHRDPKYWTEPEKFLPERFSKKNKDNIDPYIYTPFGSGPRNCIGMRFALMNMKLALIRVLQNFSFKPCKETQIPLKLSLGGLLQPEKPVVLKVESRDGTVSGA
Sequence of Cytochrome P450 2C8 (P10632 whole entry): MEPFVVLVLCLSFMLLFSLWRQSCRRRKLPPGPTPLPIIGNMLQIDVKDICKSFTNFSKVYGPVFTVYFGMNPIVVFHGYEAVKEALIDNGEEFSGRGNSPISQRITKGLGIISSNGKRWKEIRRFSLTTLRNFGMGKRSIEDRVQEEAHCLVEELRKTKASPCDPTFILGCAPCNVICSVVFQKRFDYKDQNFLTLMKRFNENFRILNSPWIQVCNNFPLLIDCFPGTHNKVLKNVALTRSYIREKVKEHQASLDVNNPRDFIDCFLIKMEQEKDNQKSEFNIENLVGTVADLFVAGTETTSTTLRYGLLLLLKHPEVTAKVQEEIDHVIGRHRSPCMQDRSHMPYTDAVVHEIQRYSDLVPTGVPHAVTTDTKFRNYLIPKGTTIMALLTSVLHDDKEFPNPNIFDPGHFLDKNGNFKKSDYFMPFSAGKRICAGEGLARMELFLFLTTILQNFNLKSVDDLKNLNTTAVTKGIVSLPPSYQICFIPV
Sequence of Casein kinase I isoform epsilon (P49674 whole entry, canonical isoform): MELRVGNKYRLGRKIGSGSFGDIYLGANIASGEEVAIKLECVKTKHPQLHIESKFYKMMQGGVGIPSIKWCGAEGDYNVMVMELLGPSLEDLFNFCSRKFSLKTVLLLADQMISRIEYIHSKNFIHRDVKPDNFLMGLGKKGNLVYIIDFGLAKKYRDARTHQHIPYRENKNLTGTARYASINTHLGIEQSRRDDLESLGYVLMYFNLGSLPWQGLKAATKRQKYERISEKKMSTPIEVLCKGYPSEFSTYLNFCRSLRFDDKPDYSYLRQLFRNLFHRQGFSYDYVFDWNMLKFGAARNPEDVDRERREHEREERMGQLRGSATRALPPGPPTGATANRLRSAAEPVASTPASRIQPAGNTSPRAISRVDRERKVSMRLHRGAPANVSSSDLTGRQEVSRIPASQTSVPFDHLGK
Sequence of Cytochrome P450 2C9 (P11712 whole entry): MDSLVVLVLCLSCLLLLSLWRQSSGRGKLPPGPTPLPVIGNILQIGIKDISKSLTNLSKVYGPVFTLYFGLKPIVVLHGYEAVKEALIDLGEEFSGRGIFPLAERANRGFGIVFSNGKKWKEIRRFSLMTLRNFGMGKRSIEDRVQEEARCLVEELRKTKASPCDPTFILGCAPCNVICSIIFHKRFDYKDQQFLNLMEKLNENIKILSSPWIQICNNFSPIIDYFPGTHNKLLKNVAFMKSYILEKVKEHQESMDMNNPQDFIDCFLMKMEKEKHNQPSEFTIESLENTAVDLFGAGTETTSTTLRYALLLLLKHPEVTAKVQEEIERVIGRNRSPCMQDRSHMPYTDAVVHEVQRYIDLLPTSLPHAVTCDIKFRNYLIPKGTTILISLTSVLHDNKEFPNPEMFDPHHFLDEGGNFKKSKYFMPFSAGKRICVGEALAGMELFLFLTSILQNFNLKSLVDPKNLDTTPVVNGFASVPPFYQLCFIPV

Structure (SMILES) | microsomal CLint at 1 µM [2] [µL/min/mg] | Papp A→B at 1 h, 5 µM [3] [×10⁻⁶ cm/s] | clearance [4] [mL/min/kg] | Vd [5] [L/kg] | bioavailability [6] [%] | Cmax [7] [nM] | half-life [8] [min] | AUC(0-inf) [9] [ng·h/mL] | microsomal CLint at 1 µM [10] [µL/min/mg] | microsomal CLint at 1 µM [11] [µL/min/mg] | microsomal CLint at 1 µM [12] [µL/min/mg] | IC50 (Cytochrome P450 1A2) [µM] | IC50 (Cytochrome P450 2C8) [µM] | IC50 (Cytochrome P450 2C9) [µM] | IC50 (Cytochrome P450 2C19) [µM] | IC50 (Cytochrome P450 2D6) [µM] | IC50 (Cytochrome P450 3A4) [µM] | IC50 [13] [µM] | IC50 [14] [µM] | fCmax [15] [µM] | further results
[2H]C([2H])([2H])C1(C([2H])([2H])[2H])Cn2nc(-c3ccc(F)cn3)c(-c3ccnc4[nH]ncc34)c2CO1 | 8.5 | 4.8 | 44 | 1 | 85 | 3000 | 48 | 1940 | < 7.7 | < 7.7 | < 7.7 | > 20 | > 20 | > 20 | > 20 | > 20 | > 20 | 0.41 | 0.11 | 1.1 | microsomal CLint at 1 µM [1]: < 7.7 µL/min/mg; Cmax [16]: 3700 nM; Cmax [17]: 23900 nM; Cmax [18]: 1350 ng/g; Cmax [19]: 8850 ng/mL; Drug uptake(free) [20]: 789 nM; Cp(f) [21]: 6117 nM; Kp uu at 6 h [22]: 0.13; Occ (Brain): 60%; Time [23]: 1.25 h
CC1(C)Cn2nc(-c3ccc(F)cn3)c(-c3ccnc4[nH]ncc34)c2CO1 | 17.2 | 7.4 | 104 | 1.2 | 19 | 400 | 60 | 150 | 22.7 | < 7.7 | 12.3 | > 20 | > 20 | > 20 | > 20 | > 20 | > 20 | 0.79 | 0.093 | 0.15 | IC50 [24]: 3.2 µM; bioavailability [25]: 4%; Cmax [26]: 700 nM; bioavailability [27]: 53%; Cmax [28]: 11300 nM; Cmax [29]: 2300 nM; Cmax [18]: 847 ng/g; Cmax [19]: 4110 ng/mL; Drug uptake(free) [20]: 668 nM; Cp(f) [21]: 2899 nM; Kp uu at 6 h [22]: 0.23; Occ (Brain): 56%; Time [23]: 0.83 h; Activity (Mus musculus [30]): Active; Activity (Mus musculus [31]): Active
